Experimental data reported in patent US8993756B2 (Merck Sharp & Dohme Corp., priority 2011, dated 2015).

Columns and labels:
JAK2 = JAK2 (Homo sapiens (Human), UniProt O60674); experiment: Jak Biochemical HTRF Assay (JAK2); details: recombinant GST-tagged catalytic domain, [ATP] 8.5 μM
Method: (§1) Biological Assays Jak Biochemical HTRF Assay Protocol
The ability of compounds to inhibit the activity of JAK1, JAK2, JAK3, and Tyk2 was measured using a recombinant purified GST-tagged catalytic domain for each enzyme (Invitrogen JAK1 #M4290, JAK2 #M4290, JAK3 #M4290, Tyk2 #M4290) in an HTRF format biochemical assay. […] The basic assay protocol is as follows: First, 250 nL of diluted compounds in DMSO were dispensed into the wells of a dry 384-well Black plate (Greiner #781076) using a Labcyte Echo 555 acoustic dispenser. Subsequent reagent additions employed an Agilent Bravo. Next, 18 μL of 1.11× enzyme and 1.11× substrate in 1× assay buffer (Invitrogen kinase buffer # PV3189, 2 mM DTT, 0.05% BSA) were added to the wells and shaken and then preincubated for 30 minutes at room temperature to allow compound binding to equilibrate. After equilibration, 2 μL of 10×ATP in 1× assay buffer was added to initiate the kinase reaction and the plates were shaken and then incubated at room temperature for 120 minutes. At the end of the incubation, 20 μL of 2× stop buffer (streptavidin-Dylight 650 (Thermo #84547B100 mL), Eu-tagged pY20 antibody (Perkin Elmer #AD0067), EDTA, HEPES, and Triton) was added to quench the reaction. Plates were shaken and centrifuged and then incubated 60 minutes at room temperature and then read on a Perkin Elmer Envision (λex=337 nm, λem=665 and 615 nm, TRF delay time=20 μs). HTRF signal=10,000*665 nm reading 615 nm reading. After normalization to untreated controls, the percent inhibition of the HTRF signal at each compound concentration was calculated. The plot of percent inhibition versus the log of compound concentration was fit with a 4-parameter dose response equation to calculate IC50 values.

JAK3 = JAK3 (Homo sapiens (Human), UniProt P52333); experiment: Jak Biochemical HTRF Assay (JAK3); details: recombinant GST-tagged catalytic domain, [ATP] 2.9 μM
JAK3, sequence (P52333 822-1111): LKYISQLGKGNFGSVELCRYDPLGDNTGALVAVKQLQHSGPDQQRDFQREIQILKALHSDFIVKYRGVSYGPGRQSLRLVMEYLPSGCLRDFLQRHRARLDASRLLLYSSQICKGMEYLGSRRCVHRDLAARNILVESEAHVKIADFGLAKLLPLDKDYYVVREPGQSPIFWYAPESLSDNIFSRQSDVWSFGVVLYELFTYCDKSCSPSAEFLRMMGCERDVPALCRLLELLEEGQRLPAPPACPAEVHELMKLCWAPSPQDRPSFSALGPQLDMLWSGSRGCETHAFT
Method: as §1
The ability of compounds to inhibit the activity of JAK1, JAK2, JAK3, and Tyk2 was measured using a recombinant purified GST-tagged catalytic domain for each enzyme (Invitrogen JAK1 #M4290, JAK2 #M4290, JAK3 #M4290, Tyk2 #M4290) in an HTRF format biochemical assay. […] Subsequent reagent additions employed an Agilent Bravo. […] After equilibration, 2 μL of 10×ATP in 1× assay buffer was added to initiate the kinase reaction and the plates were shaken and then incubated at room temperature for 120 minutes. At the end of the incubation, 20 μL of 2× stop buffer (streptavidin-Dylight 650 (Thermo #84547B100 mL), Eu-tagged pY20 antibody (Perkin Elmer #AD0067), EDTA, HEPES, and Triton) was added to quench the reaction. […] After normalization to untreated controls, the percent inhibition of the HTRF signal at each compound concentration was calculated. The plot of percent inhibition versus the log of compound concentration was fit with a 4-parameter dose response equation to calculate IC50 values.

JAK2, sequence (O60674 849-1124): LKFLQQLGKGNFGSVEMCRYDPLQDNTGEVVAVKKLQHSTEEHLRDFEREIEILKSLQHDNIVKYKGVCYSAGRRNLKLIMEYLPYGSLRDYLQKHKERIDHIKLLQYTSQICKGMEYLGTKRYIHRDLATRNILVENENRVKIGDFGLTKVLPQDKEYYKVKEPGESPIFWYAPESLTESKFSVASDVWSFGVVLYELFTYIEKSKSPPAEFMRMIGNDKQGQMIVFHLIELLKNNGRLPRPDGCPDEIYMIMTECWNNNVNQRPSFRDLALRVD

| SMILES | IC50 (JAK2) [nM] | IC50 (JAK3) [nM] | IC50 (JAK2; given as range class) [nM] | IC50 (JAK3; given as range class) [nM] |
| --- | --- | --- | --- | --- |
| CCOC(=O)c1c[nH]c2ncnc(-c3ccc4c(c3)NCC4)c12 [Example 1-31, ethyl 4-(2,3-dihydro-1H-indol-6-yl)-7H-pyrrolo[2,3-d]pyrimidine-5-carboxylate] | 91 | 4.6 |  |  |
| CCOC(=O)c1c[nH]c2ncnc(-c3cccc(NC(=O)C=C(C)C)c3)c12 [Example 5-27, ethyl 4-{3-[(3-methylbut-2-enoyl)amino]phenyl}-7H-pyrrolo[2,3-d]pyrimidine-5-carboxylate] |  |  | > 500 | 10 to 500 |
| CCOC(=O)c1c[nH]c2ncnc(-c3ccc(N4CCN(C)CC4)nc3)c12 [Example 1-87, ethyl 4-[6-(4-methylpiperazin-1-yl)pyridin-3-yl]-7H-pyrrolo[2,3-d]pyrimidine-5-carboxylate] |  |  | > 500 | 10 to 500 |
| CCOC(=O)c1c[nH]c2ncnc(-c3ccccc3)c12 [Example 1-1, Ethyl 4-phenyl-7H-pyrrolo[2,3-d]pyrimidine-5-carboxylate] | 91 | 5.5 |  |  |
| C=C(C)C(=O)Nc1cccc(-c2ncnc3[nH]cc(C(=O)OCC)c23)c1 [Example 4-1, Ethyl-4-{3-[(2-methylacryloyl)amino]phenyl}-7H-pyrrolo[2,3-d]pyrimidine-5-carboxylate] | > 1480 | 0.15 |  |  |
| C=C(C)C(=O)Nc1cccc(-c2ncnc3[nH]cc(-c4nc(C)co4)c23)c1 [Example 29, N-(3-(5-(4-Methyloxazol-2-yl)-7H-pyrrolo[2,3-d]pyrimidin-4-yl)phenyl)methacrylamide] |  |  | > 500 | 10 to 500 |
| CCOC(=O)c1c[nH]c2ncnc(C3=CCN(C(=O)OC(C)(C)C)CC3)c12 [Example 1-18, ethyl 4-[1-(tert-butoxycarbonyl)-1,2,3,6-tetrahydropyridin-4-yl]-7H-pyrrolo[2,3-d]pyrimidine-5-carboxylate] |  |  | 10 to 500 | 10 to 500 |
| CCOC(=O)c1c[nH]c2ncnc(-c3cccnc3)c12 [Example 1-28, ethyl 4-pyridin-3-yl-7H-pyrrolo[2,3-d]pyrimidine-5-carboxylate] |  |  | > 500 | 10 to 500 |
| C/C=C\C(=O)Nc1cccc(-c2ncnc3[nH]cc(C(=O)OCC)c23)c1 [Example 5-9, ethyl 4-{3-[(2Z)-but-2-enoylamino]phenyl}-7H-pyrrolo[2,3-d]pyrimidine-5-carboxylate] | > 1500 | 8.3 |  |  |
| CCOC(=O)c1c[nH]c2ncnc(-c3cccc(NC(=O)/C=C/c4cccs4)c3)c12 [Example 5-21, ethyl 4-(3-{[(2E)-3-thiophen-2-ylprop-2-enoyl]amino}phenyl)-7H-pyrrolo[2,3-d]pyrimidine-5-carboxylate] |  |  | > 500 | 10 to 500 |
| C=C(C)C(=O)Nc1cc(-c2ncnc3[nH]cc(C(=O)OCC)c23)ccn1 [Example 4-35, ethyl 4-{2-[(2-methylacryloyl)amino]pyridin-4-yl}-7H-pyrrolo[2,3-d]pyrimidine-5-carboxylate] | > 1500 | 0.049 |  |  |
| CCOC(=O)c1c[nH]c2ncnc(-c3ccc4c(C(=O)N(C)C)n(C)nc4c3)c12 [Example 1-30, ethyl 4-[3-(dimethylcarbamoyl)-2-methyl-2H-indazol-6-yl]-7H-pyrrolo[2,3-d]pyrimidine-5-carboxylate] |  |  | > 500 | 10 to 500 |
| C=C(C)C(=O)Nc1cncc(-c2ncnc3[nH]cc(C(=O)OCC)c23)c1 [Example 4-3, Ethyl 4-{5-[(2-methylacryloyl)amino]pyridin-3-yl}-7H-pyrrolo[2,3-d]pyrimidine-5-carboxylate] | > 1500 | 0.085 |  |  |
| CCOC(=O)c1c[nH]c2ncnc(-c3cccc(-n4cccn4)c3)c12 [Example 1-103, ethyl 4-[3-(1H-pyrazol-1-yl)phenyl]-7H-pyrrolo[2,3-d]pyrimidine-5-carboxylate] |  |  | > 500 | 10 to 500 |
| CCOC(=O)c1c[nH]c2ncnc(-c3ccc(-c4ccccc4)cc3)c12 [Example 1-44, ethyl 4-biphenyl-4-yl-7H-pyrrolo[2,3-d]pyrimidine-5-carboxylate] | 47 | 4.2 |  |  |
| CCOC(=O)c1c[nH]c2ncnc(-c3cc4ccccc4o3)c12 [Example 1-54, ethyl 4-(1-benzofuran-2-yl)-7H-pyrrolo[2,3-d]pyrimidine-5-carboxylate] | 61 | 4 |  |  |
| C=CS(=O)(=O)Nc1cccc(-c2ncnc3[nH]cc(C(=O)OCC)c23)c1 [Example 10-1, Ethyl 4-{3-[(ethenylsulfonyl)amino]phenyl}-7H-pyrrolo[2,3-d]pyrimidine-5-carboxylate] | > 1500 | 0.037 |  |  |
| CCOC(=O)c1c[nH]c2ncnc(-c3cc4ccccc4s3)c12 [Example 1-50, ethyl 4-(1-benzothiophen-2-yl)-7H-pyrrolo[2,3-d]pyrimidine-5-carboxylate] | 54 | 4.8 |  |  |
| CCOC(=O)c1c[nH]c2ncnc(-c3cccc(NC(=O)C(C)(O)CO)c3)c12 (stereo not shown) [Example 18-2, Ethyl-4-(3-(2,3-dihydroxy-2-methylpropanamido)phenyl)-7H-pyrrolo[2,3-d]pyrimidine-5-carboxylate] |  |  | > 500 | 10 to 500 |
| C=CC(=O)N(C)c1cccc(-c2ncnc3[nH]cc(C(=O)OCC)c23)c1 [Example 12-1, Ethyl 4-(3-(N-methylacrylamido)phenyl)-7H-pyrrolo[2,3-d]pyrimidine-5-carboxylate] | > 1500 | 0.13 |  |  |
| CCOC(=O)c1c[nH]c2ncnc(-c3ccc(-n4cccn4)cc3)c12 [Example 1-94, ethyl 4-[4-(1H-pyrazol-1-yl)phenyl]-7H-pyrrolo[2,3-d]pyrimidine-5-carboxylate] | 121 | 7.5 |  |  |
| CCOC(=O)c1c[nH]c2ncnc(-c3ccc4ncccc4c3)c12 [Example 1-49, ethyl 4-quinolin-6-yl-7H-pyrrolo[2,3-d]pyrimidine-5-carboxylate] |  |  | > 500 | 10 to 500 |
| CCOC(=O)c1c[nH]c2ncnc(-c3ccc(N)cc3)c12 [Example 1-80, ethyl 4-(4-aminophenyl)-7H-pyrrolo[2,3-d]pyrimidine-5-carboxylate] | 53 | 2.3 |  |  |
| C=C(C)C(=O)Nc1cccc(-c2ncnc3[nH]cc(-c4ccc(C)cc4)c23)c1 [Example 20-7, 2-methyl-N-{3-[5-(4-methylphenyl)-7H-pyrrolo[2,3-d]pyrimidin-4-yl]phenyl}prop-2-enamide] | > 1500 | 5.4 |  |  |
| CCOC(=O)c1c[nH]c2ncnc(-c3ccc(CO)c(N)c3)c12 [Example 1-32, ethyl 4-[3-amino-4-(hydroxymethyl)phenyl]-7H-pyrrolo[2,3-d]pyrimidine-5-carboxylate] |  | 8.3 |  |  |
| CCOC(=O)c1c[nH]c2ncnc(-c3cccc(Cl)c3)c12 [Example 1-39, ethyl 4-(3-chlorophenyl)-7H-pyrrolo[2,3-d]pyrimidine-5-carboxylate] |  | 8.4 |  |  |
| CCOC(=O)c1c[nH]c2ncnc(-c3cccc(OCc4ccccc4)c3)c12 [Example 1-52, ethyl 4-[3-(benzyloxy)phenyl]-7H-pyrrolo[2,3-d]pyrimidine-5-carboxylate] |  | 3.3 |  |  |
| CCOC(=O)c1c[nH]c2ncnc(-c3ccc4c(F)n(C)nc4c3)c12 [Example 1-29, ethyl 4-(3-fluoro-2-methyl-2H-indazol-6-yl)-7H-pyrrolo[2,3-d]pyrimidine-5-carboxylate] |  | 8.1 |  |  |
